Test: Exposure to 75% Relative Humidity atmosphere (re-weighing and infrared spectrum)
Format: physicochemical
Settings: sealed container, 75% Relative Humidity (saturated sodium chloride solution), 21° C., 96 hours
Text: The sample was re-weighed and the infrared spectrum of the product recorded.

Infrared spectrum after humidity exposure: no change
Sample weight after humidity exposure: no weight gain
Structure (SMILES): CN(CCOc1ccc(CC2SC(=O)NC2=O)cc1)c1ccccn1.I (centres unmarked) [Hydriodide, 5-[4-[2-(N-Methyl-N-(2-pyridyl)amino)ethoxy]benzyl]thiazolidine-2,4-dione Hydriodide]

Source: patent US20040024027A1 (priority 2000, published 2004)
